{
  "source": "patent US6878707B2",
  "about": "“Carboxamides useful as inhibitors of microsomal triglyceride transfer protein and of apolipoprotein b secretion” (Novartis AG, priority 2001, dated 2005)",
  "data": [
    {"molecular_target": "microsomal triglyceride transfer protein (MTP) (Homo sapiens, UniProt P55157)", "sequence (P55157 19-894, species assumed)": "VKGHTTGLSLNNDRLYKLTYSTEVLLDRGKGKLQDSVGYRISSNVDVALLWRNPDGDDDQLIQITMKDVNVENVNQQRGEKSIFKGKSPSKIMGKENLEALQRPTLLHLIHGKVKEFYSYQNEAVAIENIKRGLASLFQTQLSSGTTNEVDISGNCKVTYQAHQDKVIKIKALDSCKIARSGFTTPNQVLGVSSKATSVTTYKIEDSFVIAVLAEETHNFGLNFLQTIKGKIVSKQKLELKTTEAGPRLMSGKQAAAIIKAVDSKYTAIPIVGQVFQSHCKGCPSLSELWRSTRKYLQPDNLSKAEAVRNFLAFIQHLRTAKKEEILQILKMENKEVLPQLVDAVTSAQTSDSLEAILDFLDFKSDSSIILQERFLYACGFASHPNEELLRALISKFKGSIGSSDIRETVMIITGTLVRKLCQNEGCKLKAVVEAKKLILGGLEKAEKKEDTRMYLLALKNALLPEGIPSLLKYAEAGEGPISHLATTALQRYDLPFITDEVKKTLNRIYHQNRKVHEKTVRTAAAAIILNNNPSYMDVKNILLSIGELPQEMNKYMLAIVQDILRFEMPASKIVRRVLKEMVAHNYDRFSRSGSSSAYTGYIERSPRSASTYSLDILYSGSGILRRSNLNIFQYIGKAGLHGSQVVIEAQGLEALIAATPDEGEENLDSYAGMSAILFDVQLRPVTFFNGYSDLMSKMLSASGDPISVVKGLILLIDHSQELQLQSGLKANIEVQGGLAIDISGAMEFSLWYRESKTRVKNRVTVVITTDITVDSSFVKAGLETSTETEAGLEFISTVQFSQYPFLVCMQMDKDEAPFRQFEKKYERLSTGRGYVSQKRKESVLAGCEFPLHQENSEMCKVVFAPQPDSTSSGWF", "sequence (P07237 18-508 partner, species assumed)": "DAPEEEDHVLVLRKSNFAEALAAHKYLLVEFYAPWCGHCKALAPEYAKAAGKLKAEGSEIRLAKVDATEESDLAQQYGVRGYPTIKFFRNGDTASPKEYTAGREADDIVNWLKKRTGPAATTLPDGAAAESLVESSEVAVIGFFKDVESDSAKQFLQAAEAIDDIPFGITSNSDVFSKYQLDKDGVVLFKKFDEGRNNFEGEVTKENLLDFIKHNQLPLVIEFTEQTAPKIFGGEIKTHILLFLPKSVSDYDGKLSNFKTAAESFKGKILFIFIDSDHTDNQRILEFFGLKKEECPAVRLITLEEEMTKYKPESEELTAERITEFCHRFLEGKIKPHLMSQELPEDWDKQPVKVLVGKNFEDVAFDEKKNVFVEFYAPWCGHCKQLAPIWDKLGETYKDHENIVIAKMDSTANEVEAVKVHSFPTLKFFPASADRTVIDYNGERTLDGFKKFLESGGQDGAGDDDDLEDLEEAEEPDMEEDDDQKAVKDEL", "assay": "MTP assay", "type": "biochemical", "details": "not given", "from_the_text": "(§1) The corresponding relevant subject matter of said PCT application is herewith incorporated by reference into the present specification.", "units": {"IC50": "nM"}, "values": [
      {"smiles": "COC(=O)N1CCN([C@@H]2Cc3ccc(NC(=O)c4cccc(C)c4-c4ccc(C(F)(F)F)cc4)cc3C2)CC1", "note": "[Example 14, (R)-6-Methyl-4′-trifluoromethyl-1,1′-biphenyl-N-[2-[4-(methoxycarbonyl)-piperazino]indan-5-yl]-2-carboxamide]", "IC50": "~40"}
    ]},
    {"system": "not listed separately", "assay": "in vivo lowering of plasma triglycerides and cholesterol", "details": "dose of 5 mg/kg p.o.", "from_the_text": "as §1", "values": [
      {"smiles": "COC(=O)N1CCN([C@@H]2Cc3ccc(NC(=O)c4cccc(C)c4-c4ccc(C(F)(F)F)cc4)cc3C2)CC1", "note": "[Example 14, (R)-6-Methyl-4′-trifluoromethyl-1,1′-biphenyl-N-[2-[4-(methoxycarbonyl)-piperazino]indan-5-yl]-2-carboxamide]", "plasma cholesterol": "lowers", "plasma triglycerides": "lowers"}
    ]},
    {"system": "not given", "assay": "not given", "details": "not given", "units": {"melting point": "°C"}, "values": [
      {"smiles": "COC1CCN(C2Cc3ccc(NC(=O)c4cccc(C)c4-c4ccc(C(F)(F)F)cc4)cc3C2)CC1", "note": "(stereo not drawn) [Example 10]", "melting point": "197 to 199"},
      {"smiles": "COC(=O)N1CCN(C2Cc3ccc(NC(=O)c4cccc(C)c4-c4ccc(C(F)(F)F)cc4)cc3C2)CC1", "note": "(racemic) [Example 1, 6-Methyl-4′-trifluoromethyl-1,1′-biphenyl-N-[2[4-(methoxycarbonyl)-piperazino]-indan-5-yl]-2-carboxamide]", "melting point": "161 to 163"},
      {"smiles": "Cc1cccc(C(=O)Nc2ccc3c(c2)CC(N2CCN(C(=O)CO)CC2)C3)c1-c1ccc(C(F)(F)F)cc1", "note": "(stereo not drawn) [Example 30]", "melting point": "86 to 88"},
      {"smiles": "Cc1cccc(C(=O)Nc2ccc3c(c2)CC(N2CCC4(CC2)OCCO4)C3)c1-c1ccc(C(F)(F)F)cc1", "note": "(stereo not drawn) [Example 11]", "melting point": "202 to 203"},
      {"smiles": "COC(=O)N1CCN(C2Cc3ccc(NC(=O)c4ccccc4-c4ccccc4)cc3C2)CC1", "note": "(stereo not drawn) [Example 39]", "melting point": "164 to 168"},
      {"smiles": "Cc1cccc(C(=O)Nc2ccc3c(c2)CC(N2CCN(Cc4ccccc4)CC2)C3)c1-c1ccc(C(F)(F)F)cc1", "note": "(stereo not drawn) [Example 4]", "melting point": "188 to 191"},
      {"smiles": "Cc1cccc(C(=O)Nc2ccc3c(c2)CC(N2CCOCC2)C3)c1-c1ccc(C(F)(F)F)cc1", "note": "(stereo not drawn) [Example 7]", "melting point": "201 to 204"},
      {"smiles": "COCC(=O)N1CCN(C2Cc3ccc(NC(=O)c4cccc(C)c4-c4ccc(C(F)(F)F)cc4)cc3C2)CC1", "note": "(stereo not drawn) [Example 26]", "melting point": "161 to 162"},
      {"smiles": "Cc1cccc(C(=O)Nc2ccc3c(c2)CC(N2CCN(C(=O)N(C)C)CC2)C3)c1-c1ccc(C(F)(F)F)cc1", "note": "(stereo not drawn) [Example 27]", "melting point": "217 to 218"},
      {"smiles": "CC(=O)N1CCN(C2Cc3ccc(NC(=O)c4cccc(C(F)(F)F)c4-c4ccc(C(F)(F)F)cc4)cc3C2)CC1", "note": "(stereo not drawn) [Example 22]", "melting point": "184 to 186"},
      {"smiles": "COC(=O)N1CCN(C2Cc3ccc(NC(=O)c4cccc(C)c4-c4ccc(F)cc4)cc3C2)CC1", "note": "(stereo not drawn) [Example 37]", "melting point": "141 to 142"},
      {"smiles": "Cc1cccc(C(=O)Nc2ccc3c(c2)CC(N2CCN(C(=O)c4ccccc4)CC2)C3)c1-c1ccc(C(F)(F)F)cc1", "note": "(stereo not drawn) [Example 28]", "melting point": "120 to 123"},
      {"smiles": "Cc1ccc(S(=O)(=O)N2CCN(C3Cc4ccc(NC(=O)c5cccc(C)c5-c5ccc(C(F)(F)F)cc5)cc4C3)CC2)cc1", "note": "(stereo not drawn) [Example 23]", "melting point": "153 to 154"},
      {"smiles": "COC(=O)N1CCN(C2Cc3ccc(NC(=O)c4cccc(C(F)(F)F)c4-c4ccc(C(F)(F)F)cc4)cc3C2)CC1", "note": "(stereo not drawn) [Example 5]", "melting point": "210 to 212"},
      {"smiles": "COC(=O)N1CCN(C2Cc3ccc(NC(=O)c4ccccc4-c4ccc(C(F)(F)F)cc4)cc3C2)CC1", "note": "(stereo not drawn) [Example 6]", "melting point": "204 to 206"},
      {"smiles": "COC(=O)N1CCN([C@@H]2Cc3ccc(NC(=O)c4cccc(C)c4-c4ccc(C(F)(F)F)cc4)cc3C2)CC1", "note": "[Example 14, (R)-6-Methyl-4′-trifluoromethyl-1,1′-biphenyl-N-[2-[4-(methoxycarbonyl)-piperazino]indan-5-yl]-2-carboxamide]", "melting point": "163 to 164"},
      {"smiles": "Cc1cccc(C(=O)Nc2ccc3c(c2)CC(N2CCN(c4ccccc4)CC2)C3)c1-c1ccc(C(F)(F)F)cc1", "note": "(stereo not drawn) [Example 2]", "melting point": "236 to 238"},
      {"smiles": "Cc1cccc(C(=O)Nc2ccc3c(c2)CC(N2CCC(C)CC2)C3)c1-c1ccc(C(F)(F)F)cc1", "note": "(stereo not drawn) [Example 12]", "melting point": "219 to 221"},
      {"smiles": "COC(=O)N1CCN(C2Cc3ccc(NC(=O)c4ccccc4-c4ccc(C)cc4)cc3C2)CC1", "note": "(stereo not drawn) [Example 41]", "melting point": "136 to 138"},
      {"smiles": "Cc1cccc(C(=O)Nc2ccc3c(c2)CC(N2CCN(S(C)(=O)=O)CC2)C3)c1-c1ccc(C(F)(F)F)cc1", "note": "(stereo not drawn) [Example 24]", "melting point": "205 to 208"},
      {"smiles": "COC(=O)N1CCN(C2Cc3ccc(NC(=O)c4cccc(OC)c4-c4ccc(C(F)(F)F)cc4)cc3C2)CC1", "note": "(stereo not drawn) [Example 38]", "melting point": "176 to 178"},
      {"smiles": "Cc1cccc(C(=O)Nc2ccc3c(c2)CC(N2CCN(C(=O)c4ccncc4)CC2)C3)c1-c1ccc(C(F)(F)F)cc1", "note": "(stereo not drawn) [Example 25]", "melting point": "158 to 160"},
      {"smiles": "Cc1cccc(C(=O)Nc2ccc3c(c2)CC(N2CCN(C(=O)COCc4ccccc4)CC2)C3)c1-c1ccc(C(F)(F)F)cc1", "note": "(stereo not drawn) [Example 29]", "melting point": "160 to 161"},
      {"smiles": "COC(=O)N1CCN(C2Cc3ccc(NC(=O)c4cccc(OC)c4-c4ccc(F)cc4)cc3C2)CC1", "note": "(stereo not drawn) [Example 13]", "melting point": "132 to 134"},
      {"smiles": "Cc1cccc(C(=O)Nc2ccc3c(c2)CC(N2CCN(C)CC2)C3)c1-c1ccc(C(F)(F)F)cc1", "note": "(stereo not drawn) [Example 3]", "melting point": "209 to 210"},
      {"smiles": "COC(=O)C1CCN(C2Cc3ccc(NC(=O)c4cccc(C)c4-c4ccc(C(F)(F)F)cc4)cc3C2)CC1", "note": "(stereo not drawn) [Example 9]", "melting point": "191 to 195"},
      {"smiles": "CCCC(=O)N1CCN(C2Cc3ccc(NC(=O)c4cccc(C)c4-c4ccc(C(F)(F)F)cc4)cc3C2)CC1", "note": "(stereo not drawn) [Example 21]", "melting point": "173 to 176"},
      {"smiles": "Cc1cccc(C(=O)Nc2ccc3c(c2)CC(N2CCN(Cc4ccccn4)CC2)C3)c1-c1ccc(C(F)(F)F)cc1", "note": "(stereo not drawn) [Example 31, 6-methyl-4′-trifluoromethyl-1,1′-biphenyl-N-[2-[4-(2-pyridinylmethyl)piperazino]indan-5-yl]-2-carboxamide]", "melting point": "190 to 194"},
      {"smiles": "O=C(Nc1ccc2c(c1)CC(N1CCOCC1)C2)c1ccccc1-c1ccc(C(F)(F)F)cc1", "note": "(stereo not drawn) [Example 8]", "melting point": "191 to 194"}
    ]},
    {"system": "apolipoprotein B (apo B) secretion", "assay": "apo B assay", "type": "cell-based", "details": "not given", "from_the_text": "as §1", "units": {"IC50": "nM"}, "values": [
      {"smiles": "COC(=O)N1CCN([C@@H]2Cc3ccc(NC(=O)c4cccc(C)c4-c4ccc(C(F)(F)F)cc4)cc3C2)CC1", "note": "[Example 14, (R)-6-Methyl-4′-trifluoromethyl-1,1′-biphenyl-N-[2-[4-(methoxycarbonyl)-piperazino]indan-5-yl]-2-carboxamide]", "IC50": "~2"}
    ]}
  ]
}
